Experimental data taken from patent US20240307507A1, “LACTOFERRIN COMPOSITIONS AND METHODS OF USE” (LACTEA THERAPEUTICS LLC, priority 2021, published 2024).

Tested on: SARS-COV-2
Assay: SARS-COV-2 Cytopathic Effect (CPE) reduction assay in Vero E6 cells
Type: cell-based
Details: Severe acute respiratory syndrome coronavirus 2, Vero C1008, 72 h

## CCC(CC)COC(=O)[C@H](C)N[P@](=O)(OC[C@H]1O[C@@](C#N)(c2ccc3c(N)ncnn23)[C@H](O)[C@@H]1O)Oc1ccccc1 [Remdesivir, reference compound]
  EC50: 4.5 µM
